Results from article PMC7852567, “A first-in-human phase 1 and pharmacological study of TAS-119, a novel selective Aurora A kinase inhibitor in patients with advanced solid tumours” (British Journal of Cancer, 2020).
Read-outs that look alike come from different tables or passages of the source.

Legend:
ROS [1] = conditions: cited from earlier work
advanced solid tumours = test: Antitumour activity by RECIST v1.1; assay type: in vivo, human
Procedure: (§1) Adverse events (AEs) at baseline and during the study were recorded and graded based on the Common Terminology Criteria for Adverse Events v4.03. Tumour measurements were done at the end of every second cycle or as per the Institutional standard of care in case of clinical indications. Response were assessed using Response Evaluation Criteria in Solid Tumours (RECIST) v1.1.[19]
Planned enrolment in the dose escalation part included 18–30 evaluable patients, with 3–6 DLT evaluable patients in each DL. To further assess the feasibility as well as preliminarily efficacy of the RP2D, approximately 40 patients were planned to be enrolled into the expansion part (approximately 10–15 patients in each of the expansion cohorts). An additional 20 patients were pre-planned to be enrolled in an extension of the expansion part provided that either an overall response rate (ORR) of ≥20% for each specific indication or ≥10% for patients with MYC-amplified or β-catenin-mutated tumours had been observed.

TRK-A = tested on: TRK-A; parameters: method as in doi:10.1016/S0959-8049(14)70524-6; conditions: pre-clinical data; cited from earlier work
[2] = in vivo; cited from earlier work
[3] = cited from earlier work
TRK-C = tested on: TRK-C; parameters: method as in doi:10.1016/S0959-8049(14)70524-6; conditions: pre-clinical data; cited from earlier work
[4] = tested on: BORA, SGOL2, KIF20A and DEPDC-1; test: mRNA expression of mitosis genes by RT-PCR in tissue samples; assay type: in vivo, human; conditions: 32 patients from the dose escalation part
Procedure: (§2) Blood and tissue samples were taken for PD on-target effects during mitosis of TAS-119. First, the rate of phosphorylated histone H3 (pHH3) immunohistochemistry-positive cells to total cells were measured in paired skin biopsies and paired tumour samples collected prior to first TAS-119 administration as well as after receiving TAS-119 on day 4 of cycle 1. In case of target engagement, an increase in pHH3 is expected because of cells that will stagnate in mitosis. Second, pre- and post-dose mRNA expression of genes involved in mitosis, BORA, SGOL2, KIF20A and DEPDC-1, was analysed in tissue samples by reverse transcriptase-polymerase chain reaction.

[5] = tested on: phosphorylated histone H3 (pHH3); test: pHH3 immunohistochemistry in paired skin biopsies and paired tumour samples; assay type: in vivo, human
Procedure: as §2

AurA = tested on: AurA; parameters: method as in doi:10.1016/S0959-8049(14)70524-6; conditions: pre-clinical data; cited from earlier work
AurB = tested on: AurB; parameters: method as in doi:10.1016/S0959-8049(14)70524-6; conditions: pre-clinical data; cited from earlier work
ROS [6] = tested on: ROS; parameters: method as in doi:10.1016/S0959-8049(14)70524-6; conditions: pre-clinical data; cited from earlier work
AurC = tested on: AurC; parameters: method as in doi:10.1016/S0959-8049(14)70524-6; conditions: pre-clinical data; cited from earlier work
TRK-B = tested on: TRK-B; parameters: method as in doi:10.1016/S0959-8049(14)70524-6; conditions: pre-clinical data; cited from earlier work
[7] = Plasma and urine pharmacokinetics in patients (LC-MS/MS, non-compartmental); assay type: in vivo, human; conditions: for mean ratio of AUC0 − last (accumulation): RP2D level DL 2.1, 200 mg BID; for Tmax: po, all dose levels; for CL renal: urine, urine 0 to 12 h, cycle 1 day 1
Procedure: Blood samples for PK analysis were collected in cycle 1, on days 1, 4 and 18 pre-dose and at 0.5, 1, 2, 3, 5, 8, and 12 h post-dose. Urine samples were collected on day 1 of cycle 1 before dosing and from 0 to 12 h after dosing. Plasma and urine concentrations of TAS-119 were determined by validated liquid chromatography–tandem mass spectrometry method. PK parameters included the peak plasma concentration (Cmax), time to reach maximum concentration in plasma (Tmax), area under the plasma concentration–time curve up to the last observable concentration (AUC0 − last) and up to infinity (AUC0 − inf), terminal phase elimination half-life (T1/2), clearance (CL/F), apparent volume of distribution (Vd/F), renal clearance (CLr) and oral clearance (CL/F).
The influence of polymorphisms of SLCO1B1 encoding the drug influx transporter OATP1B1 was examined in a blood sample obtained pre-dose on day 1 of cycle 1 for all patients during the dose escalation part. MYC amplification and β-catenin mutation were assessed in archival formalin-fixed paraffin-embedded tumour samples obtained after enrolment of the patient into the study.
Descriptive statistics were used to summarise safety data (AEs, vital signs and clinical laboratory results) overall response based on RECIST, PK and PD data. PK parameters were calculated by standard non-compartmental methods using Phoenix^TMWinNonlin® (Ver 6.3 or later, Certara L.P.). Dose proportionality of TAS-119 was evaluated with a power model and a linear regression model using logarithmic values of PK parameters such as Cmax and AUCs, as well as a one-way analysis of variance (ANOVA) using dose-normalised parameters such as Cmax, AUCs, CL/F, and apparent volume of distribution (Vd/F). Student’s t test was used to test statistical significance of the PD data and calculate the mean ratio for AUC0 − last at RP2D or MTD. Influence of SLCO1B1 genotypes on PK parameters was tested by ANOVA.

[8] = tested on: patients with advanced, refractory, solid tumours; test: First-in-human phase 1 study: safety, tolerability, DLT, MTD, RP2D; assay type: in vivo; conditions: for DLT events in words: cycle 1
Procedure: This multicentre study (six centres) consisted of a dose escalation part with a 3 + 3 design to explore safety and tolerability. Patients were enrolled into predefined dose levels (DLs; 70, 150, 200, 250, 300 mg BID) utilising a 4 days on/3 days off schedule 3 out of 4 weeks (intermittent schedule). The rationale for this intermittent schedule was based on pre-clinical data showing a more favourable toxicity profile, compared to continuous dosing regimens while maintaining antitumour activity. In addition to the 4 days on/3 days off, 3 out of 4 weeks schedule, a continuous dosing (200 mg BID) schedule with the same weekly schedule (4 days on/3 days off) administered 4 out of 4 weeks, was explored in the escalation phase. A minimum of 3 patients were to be treated at each DL, and at least 6 patients were planned to be enrolled at the MTD level. The MTD was defined as the highest DL at which <33% of patients experienced a dose-limiting toxicity (DLT) during cycle 1. The RP2D was defined as a dose below or equal to the MTD based on the evaluation of all available information (tolerability in cycles after cycle 1, PK, PD or other safety information). The RP2D was used in the expansion part of this study. Based on the safety profile assessed in the dose escalation part of this study, either the intermittent (3 out of 4 weeks) or the continuous dosing schedule (4 out of 4 weeks) could be selected.
TAS-119 was administered orally BID as tablets of 25 and 100 mg strength, on an empty stomach. Based on rodent toxicology data, 70 mg BID was determined as the starting dose after conversion from the severely toxic dose in 10% of exposed animals (STD10) (63 mg/kg BID) to one tenth of the human equivalent dose. […] Non-haematological DLTs consisted of grade ≥3 toxicity (excluding nausea/vomiting lasting <48 h and controlled by anti-emetic therapy, diarrhoea lasting <48 h and responsive to anti-diarrhoea medication or hypersensitivity reactions), whereas haematological DLT consisted of any grade 4 neutropenia lasting >7 days, any febrile neutropenia (documented absolute neutrophil count <1000/mm^3) lasting >1 h, any grade 4 thrombocytopenia or grade 3 thrombocytopenia associated with bleeding and requiring blood transfusion.
Vital sign assessment, blood cell count, serum biochemistry, coagulation parameters, urinalysis, a 12-lead electrocardiogram and, if applicable, a pregnancy test were performed at baseline. In addition, after the amendment of the protocol (Amendment 2: 31-March-2015) an ophthalmologic assessment, including visual acuity, pupil shape and pupillary reflexes, extraocular motility (eye movement) and alignment, tonometry, visual field, external examination, slit-lamp examination, and fundoscopy, was performed and repeated in all patients on days 8 and 22 during cycle 1 and on day 1 of every subsequent cycle, beginning with cycle 3. This was a consequence of ocular toxicity observed in 2 out of 26 patients until that moment.
as §1

[9] = tested on: cancer cells with MYC oncogene amplifications and/or mutations in the Wnt/β-catenin pathway; parameters: method as in PMID 22222631, doi:10.15761/IMM.1000162; conditions: cited from earlier work
RET = tested on: RET; parameters: method as in doi:10.1016/S0959-8049(14)70524-6; conditions: pre-clinical data; cited from earlier work

COc1cc(Nc2ncc3c(n2)-c2ccc(Cl)cc2C(c2c(F)cccc2OC)=NC3)ccc1C(=O)O [Alisertib]
mean inhibition of ROS (ROS [1]): 80%

Cc1cc(Nc2nc(CC3(C(=O)O)CCN(C(=O)c4cccc(Cl)c4Cl)CC3)ccc2F)n[nH]1 [TAS-119]
patients with stable disease as best response (advanced solid tumours; DL 2 (150 mg BID)): 6 patients | patients with stable disease as best response (advanced solid tumours; DL 2.1 (200 mg BID continuous schedule)): 4 patients | patients with stable disease as best response (advanced solid tumours; DL 2.1 (200 mg BID)): 4 patients | complete or partial response (advanced solid tumours; dose escalation part): no complete response (CR) or partial response (PR) | stable disease as best response (advanced solid tumours; dose escalation part, fourteen patients): 41% | patients with unconfirmed PR (advanced solid tumours; epithelial mesothelioma, DL 2 (150 mg BID), at cycle 4): One | target ORR of 20% (or ≥10% for MYC amplification or β-catenin mutation) (advanced solid tumours; expansion part): not met | complete or partial response (advanced solid tumours; expansion part, 200 mg BID): no confirmed CR or PR | patients with stable disease (advanced solid tumours; expansion part, MYC-amp/B-cat mutation-positive tumours): 5 patients | patients with stable disease (advanced solid tumours; expansion part, SCLC): 5 patients | patients with stable disease (advanced solid tumours; expansion part, basket cohort (1 mesothelioma, 1 colorectal cancer)): 2 patients | patients with stable disease (advanced solid tumours; expansion part, breast cancer): 1 patients | IC50 (TRK-A): 1.46 ± 0.16 nM | severely toxic dose in 10% of exposed animals (STD10) [2]: 63 mg/kg BID | microscopic findings in pre-clinical high-dose toxicity study ([3]; animals, considerable individual variation): degeneration and regeneration or hyperplasia of epithelial tissue | vomiting and liquid faeces, cyclic administration versus daily administration ([3]; cyclic administration 4 days on/3 days off, pre-clinical): less frequent vomiting and liquid faeces | microscopic findings in pre-clinical high-dose toxicity study, eyes ([3]; only in dogs): involvement of the epithelium of the eyes | IC50 (TRK-C): 1.47 ± 0.04 nM | mRNA expression level of mitosis genes after dosing [4]: no significant increase | mean pHH3-positive rate in skin samples after administration ([5]; 55 paired samples, pre-dose versus day 4 of cycle 1, p value <0.0001): increased | mean pHH3 rate in paired tumour samples ([5]; eight paired tumour samples): did not significantly change | IC50 (AurA): 1.04 nM | IC50 (AurB): 95 nM | IC50 (ROS [6]): 29.3 ± 0.8 nM | IC50 (AurC): 36.5 nM | IC50 (TRK-B): 1.53 ± 0.12 nM | increase of plasma exposure with dose ([7]; 70–300 mg BID, power model, linear model and one-way ANOVA): dose-proportional | CL/F and Vd/F among SLCO1B1 polymorphism-caused phenotypes (normal/intermediate/low) ([7]; ANOVA): no statistical differences | mean ratio of AUC0 − last (accumulation) ([7]; day 4): 1.3 | mean ratio of AUC0 − last (accumulation) ([7]; day 18): 1.2 | ratio of AUC0 − last (accumulation) ([7]; continuous 200 mg BID schedule (DL 2.1), day 18): 1.1 | accumulation ratios throughout all DLs ([7]; human, in vivo): low | half-life ([7]; human, plasma, oral, blood concentrations, across dose levels): 2.8 to 6 h | Tmax ([7]; human, plasma, plasma, oral, read-out: Tmax range): 0.5 to 2 h | Tmax ([7]; human, plasma, plasma, oral, read-out: median Tmax): 1.2 h | CL renal ([7]; human, oral, read-out: CLr (renal clearance), median (converted)): 4.17 mL/min | CL renal ([7]; human, oral, read-out: CLr (renal clearance), range): 2.5 to 5.17 mL/min | oral clearance (CL/F), median ([7]; plasma): 9.79 L/h | oral clearance (CL/F), range ([7]; plasma): 2.72 to 13.94 L/h | maximum tolerated dose (MTD) ([8]; 4 days on/3 days off, 3 out of 4 weeks): 250 mg BID | DLT events in words ([8]; DL 2.2, 250 mg BID): one patient with grade 2 AEs of fatigue, corneal epithelial microcysts and nausea | DLT events in words ([8]; DL 3, 300 mg BID, 2 patients): SAE of corneal microcysts, grade 2 and 3 | AE with the outcome of death ([8]; escalation part, one patient at DL 2 (150 mg BID), disease progression, deemed not study treatment related): 3% | AEs with the outcome of death ([8]; expansion part): No AEs with the outcome of death | AE: Alkaline phosphatase increase ([8]; human, in vivo): 7 (17.5) n, % | AE: Amylase increase ([8]; human, in vivo): 4 (10.0) n, % | AE: Gamma-glutamyltransferase increase ([8]; human, in vivo): 7 (17.5) n, % | AE: Headache ([8]; human, in vivo): 5 (12.5) n, % | AE: Hyperglycaemia ([8]; human, in vivo): 5 (12.5) n, % | AE: Hypoalbuminaemia ([8]; human, in vivo): 5 (12.5) n, % | AE: Hypokalaemia ([8]; human, in vivo): 4 (10.0) n, % | AE: Hypotension ([8]; human, in vivo): 5 (14.7) n, % | AE: Pruritis ([8]; human, in vivo): 4 (10.0) n, % | AE: Upper respiratory tract infection ([8]; human, in vivo): 5 (12.5) n, % | AE: Urinary tract infection ([8]; human, in vivo): 6 (15.0) n, % | AE: Weight loss ([8]; human, in vivo): 4 (11.8) n, % | AEs leading to discontinuation of study drug ([8]; human, in vivo): 12% | AEs leading to discontinuation of the study drug ([8]; human, in vivo): 8% | dose dependence of ocular toxicity ([8]; human, in vivo): dose dependent and only seen at doses of 200 mg BID and above | grade ≥3 diarrhoea ([8]; human, in vivo): 5/74 | grade ≥3 increased lipase without symptoms of pancreatitis ([8]; human, in vivo): 9/74 | ocular side effects, in total ([8]; human, in vivo): 9 patients | ocular toxicity throughout the various DLs ([8]; human, in vivo): 38 % of the patients | recommended phase 2 dose (RP2D) ([8]; human, in vivo): 200 mg BID | treatment-related AEs leading to discontinuation of study drug ([8]; human, in vivo): 9% | patients with DLT during cycle 1 ([8]; in vivo): Five | patients with an ocular DLT ([8]; in vivo): four | treatment-related AEs leading to discontinuation of the study drug ([8]; in vivo): none | growth inhibitory effects on cancer cells with MYC amplifications and/or Wnt/β-catenin pathway mutations [9]: more potent growth inhibitory effects | IC50 (RET): 25.8 ± 1.5 nM
